From ChEMBL document CHEMBL1201862, “PubChem BioAssay data set” (2004)
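Each compound was tested at five concentrations against cells in 96-well plates for 48 hours. Here, GI50 denotes the concentration required for 50% inhibition of growth.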 Calls of active or inactive are those of the source. Cut-off read from the data, not from the text of the source: active = GI50 up to about 1.1 µM and inactive = higher.

Legend:
Test in all cases: NCI tumour cell line growth inhibition, 48 h
UACC-62 = tested on: UACC-62
A498 = tested on: A498
786-0 = tested on: 786-0
MOLT-4 = tested on: MOLT-4
Malme-3M = tested on: Malme-3M
HOP-92 = tested on: HOP-92
SK-MEL-2 = tested on: SK-MEL-2
MDA-N = tested on: MDA-N
SW-620 = tested on: SW-620
RXF 393 = tested on: RXF 393
HOP-62 = tested on: HOP-62
A549 = tested on: A549
TK-10 = tested on: TK-10
HCC 2998 = tested on: HCC 2998
SF-295 = tested on: SF-295
UACC-257 = tested on: UACC-257
LOX IMVI = tested on: LOX IMVI
NCI/ADR-RES = tested on: NCI/ADR-RES
KM12 = tested on: KM12
MDA-MB-435 = tested on: MDA-MB-435

Measured: GI50

N#CCCNCCN(CCN(C(=O)Nc1ccccc1)c1ccccc1)C(=O)Nc1ccccc1
inactive: UACC-62 32.2 µM | A498 51.2 µM | 786-0 37.1 µM | MOLT-4 39.4 µM | Malme-3M 23.4 µM | HOP-92 40.6 µM | SK-MEL-2 38.4 µM | MDA-N 47 µM | SW-620 59.7 µM | RXF 393 31.7 µM | HOP-62 65.9 µM | A549 48.1 µM | TK-10 29.5 µM | HCC 2998 16.1 µM | SF-295 51.8 µM | UACC-257 15.7 µM | LOX IMVI 37.6 µM | NCI/ADR-RES 58.3 µM

COc1ccc(/C=C/C(=O)CC(=O)/C=C/c2ccc(OC)cc2)cc1
inactive: UACC-62 54.2 µM | 786-0 30.8 µM | MOLT-4 28 µM | KM12 > 100 µM | Malme-3M 34.5 µM | SK-MEL-2 > 100 µM | MDA-N 20.7 µM | SW-620 52.5 µM | MDA-MB-435 38.6 µM | RXF 393 23.8 µM | HOP-62 > 100 µM | A549 80.4 µM | HCC 2998 > 100 µM | SF-295 27.9 µM | UACC-257 > 100 µM | LOX IMVI 1.4 µM | NCI/ADR-RES 36.1 µM

NNc1nncc2[nH]nnc12
inactive: UACC-62 > 100 µM | A498 > 100 µM | 786-0 > 100 µM | MOLT-4 > 100 µM | KM12 > 100 µM | SK-MEL-2 > 100 µM | MDA-N > 100 µM | SW-620 > 100 µM | MDA-MB-435 > 100 µM | RXF 393 > 100 µM | HOP-62 > 100 µM | A549 > 100 µM | TK-10 > 100 µM | SF-295 > 100 µM | UACC-257 > 100 µM | NCI/ADR-RES > 100 µM

CCc1cccc(CC)c1Nc1nc2c(s1)C(=O)c1ccccc1C2=O
inactive: UACC-62 17.2 µM | A498 > 10 µM | 786-0 20.9 µM | MOLT-4 23.2 µM | KM12 18.1 µM | Malme-3M 16 µM | HOP-92 19.5 µM | SK-MEL-2 18.6 µM | MDA-N 17.5 µM | SW-620 26.1 µM | MDA-MB-435 17.5 µM | RXF 393 24.8 µM | HOP-62 16 µM | A549 31.4 µM | TK-10 21.2 µM | HCC 2998 18.7 µM | SF-295 13.7 µM | UACC-257 19.5 µM | LOX IMVI 18 µM

COc1cc2c(cc1OC)C1c3ccccc3CCN1CCC2.[O-][Cl+3]([O-])([O-])O (stereo not drawn)
inactive: UACC-62 > 100 µM | 786-0 > 100 µM | MOLT-4 > 100 µM | KM12 > 100 µM | Malme-3M > 100 µM | MDA-N > 100 µM | SW-620 > 100 µM | MDA-MB-435 83.6 µM | HOP-62 > 100 µM | A549 > 100 µM | TK-10 > 100 µM | HCC 2998 > 100 µM | SF-295 > 100 µM | UACC-257 > 100 µM | LOX IMVI > 100 µM | NCI/ADR-RES > 100 µM

O=[N+]([O-])C(=C1Nc2ccccc2N1)/C(Cl)=C(/Cl)N1CCOCC1
inactive: UACC-62 77.6 µM | A498 > 100 µM | 786-0 98.9 µM | MOLT-4 17.4 µM | KM12 > 100 µM | Malme-3M 27.2 µM | SK-MEL-2 > 100 µM | MDA-N > 100 µM | SW-620 30.5 µM | MDA-MB-435 > 100 µM | HOP-62 97.9 µM | A549 > 100 µM | HCC 2998 > 100 µM | SF-295 98.4 µM | UACC-257 > 100 µM | NCI/ADR-RES 57.8 µM

Cc1ccc(C)c(NC(=O)CCc2nnc(S)[nH]2)c1
inactive: UACC-62 > 100 µM | A498 > 100 µM | 786-0 > 100 µM | MOLT-4 > 100 µM | KM12 > 100 µM | Malme-3M > 100 µM | HOP-92 > 100 µM | SK-MEL-2 > 100 µM | SW-620 17.4 µM | RXF 393 > 100 µM | HOP-62 > 100 µM | A549 > 100 µM | TK-10 > 100 µM | HCC 2998 > 100 µM | SF-295 > 100 µM | UACC-257 > 100 µM | LOX IMVI > 100 µM

N#C/C(=C\c1cc2ccccc2c2ccccc12)c1ccccc1
inactive: UACC-62 3.75 µM | A498 9.18 µM | 786-0 5.43 µM | MOLT-4 7.26 µM | KM12 5.98 µM | Malme-3M 4.86 µM | HOP-92 > 37.6 µM | SK-MEL-2 3.39 µM | SW-620 4.65 µM | RXF 393 5.66 µM | HOP-62 2.49 µM | A549 7.46 µM | TK-10 > 29.7 µM | HCC 2998 11 µM | SF-295 5.93 µM | UACC-257 9.62 µM | LOX IMVI 9.51 µM

c1ccc2c(c1)sc1c3cnccc3ccc21
inactive: UACC-62 80.4 µM | A498 > 100 µM | 786-0 > 100 µM | MOLT-4 19.5 µM | KM12 46.6 µM | Malme-3M 66.8 µM | SK-MEL-2 > 100 µM | SW-620 76.4 µM | MDA-MB-435 > 100 µM | HOP-62 > 100 µM | A549 33.7 µM | TK-10 51.2 µM | HCC 2998 > 100 µM | SF-295 85.9 µM | UACC-257 56.6 µM | LOX IMVI 71.6 µM | NCI/ADR-RES > 100 µM

O=C1NC(=S)N/C1=C\c1ccc(Cl)cc1
inactive: UACC-62 46.3 µM | 786-0 > 100 µM | MOLT-4 80.2 µM | KM12 89.7 µM | Malme-3M > 100 µM | SK-MEL-2 > 100 µM | MDA-N > 100 µM | SW-620 > 100 µM | MDA-MB-435 > 100 µM | RXF 393 > 100 µM | HOP-62 > 100 µM | A549 93.1 µM | TK-10 > 100 µM | HCC 2998 > 100 µM | SF-295 > 100 µM | LOX IMVI > 100 µM | NCI/ADR-RES > 100 µM

O=C(N/N=C(/c1nc2ccc(Cl)cc2[nH]c1=O)C(O)c1ccc(Cl)cc1Cl)c1ccncc1 (stereo not drawn)
inactive: UACC-62 > 100 µM | A498 > 100 µM | 786-0 > 100 µM | MOLT-4 > 100 µM | KM12 > 100 µM | Malme-3M > 100 µM | HOP-92 > 100 µM | SK-MEL-2 > 100 µM | SW-620 > 100 µM | RXF 393 > 100 µM | HOP-62 > 100 µM | A549 > 100 µM | TK-10 > 100 µM | HCC 2998 > 100 µM | SF-295 > 100 µM | UACC-257 > 100 µM | LOX IMVI > 100 µM

Brc1ccc(/C=N/C23CC4CC(CC(C4)C2)C3)cc1
inactive: UACC-62 > 100 µM | A498 > 100 µM | 786-0 > 100 µM | MOLT-4 > 100 µM | KM12 > 100 µM | Malme-3M > 100 µM | HOP-92 > 100 µM | SK-MEL-2 > 100 µM | SW-620 > 100 µM | RXF 393 > 100 µM | HOP-62 > 100 µM | A549 > 100 µM | TK-10 > 100 µM | HCC 2998 > 100 µM | SF-295 > 100 µM | UACC-257 > 100 µM | LOX IMVI > 100 µM

O=C(O)c1ccc(P(=O)(O)c2ccc(C(=O)O)cc2Br)c(Br)c1
inactive: UACC-62 > 100 µM | 786-0 > 100 µM | MOLT-4 > 100 µM | KM12 > 100 µM | HOP-92 > 100 µM | SK-MEL-2 > 100 µM | MDA-N > 100 µM | SW-620 > 100 µM | MDA-MB-435 > 100 µM | RXF 393 > 100 µM | HOP-62 > 100 µM | A549 > 100 µM | TK-10 > 100 µM | HCC 2998 > 100 µM | SF-295 > 100 µM | UACC-257 > 100 µM | LOX IMVI > 100 µM

C=C(C(=O)OCC)C(=O)OCC
inactive: UACC-62 > 100 µM | 786-0 > 100 µM | MOLT-4 > 100 µM | KM12 > 100 µM | Malme-3M > 100 µM | HOP-92 > 100 µM | SK-MEL-2 > 100 µM | MDA-N > 100 µM | SW-620 > 100 µM | MDA-MB-435 > 100 µM | RXF 393 > 100 µM | HOP-62 > 100 µM | A549 > 100 µM | TK-10 > 100 µM | HCC 2998 > 100 µM | SF-295 > 100 µM | UACC-257 > 100 µM | LOX IMVI > 100 µM

NC(=S)N/N=C(\C(=O)Nc1cccc([N+](=O)[O-])c1)c1nc2ccc([N+](=O)[O-])cc2nc1O
inactive: UACC-62 51.4 µM | A498 > 100 µM | 786-0 > 100 µM | MOLT-4 18.2 µM | KM12 40.6 µM | Malme-3M > 100 µM | HOP-92 > 100 µM | SK-MEL-2 > 100 µM | SW-620 > 100 µM | RXF 393 > 100 µM | HOP-62 56.8 µM | A549 91.2 µM | TK-10 > 100 µM | HCC 2998 21.9 µM | SF-295 > 100 µM | UACC-257 7.8 µM | LOX IMVI 34.7 µM

COc1ccc([C@@H]2OC(=O)C3C2C(=O)O[C@H]3c2ccc(OC)c(OC)c2)cc1OC (stereo partly drawn)
inactive: UACC-62 > 100 µM | A498 > 100 µM | 786-0 > 100 µM | MOLT-4 > 100 µM | KM12 > 100 µM | Malme-3M > 100 µM | HOP-92 > 100 µM | SK-MEL-2 > 100 µM | SW-620 > 100 µM | RXF 393 > 100 µM | HOP-62 > 100 µM | A549 > 100 µM | TK-10 > 100 µM | HCC 2998 > 100 µM | SF-295 > 100 µM | UACC-257 > 100 µM | LOX IMVI > 100 µM
